Test results reported in patent publication US8815529B2, “Sulfotransferase assay” (Research & Diagnostics Systems, Inc., priority 2011, dated 2014).

How the values were obtained:
[1] = molecular target: T1, gPAPP (Mus musculus, UniProt Q80V26); assay: Specificity of gPAPP on 3′-AMP, 5′-AMP, PAP and PAPS (phosphate release); format: biochemical; conditions: for activity of gPAPP alone on the nucleotide: 1 μg gPAPP; for activity of gPAPP alone on the nucleotide / phosphate released by gPAPP versus amount of gPAPP: 10 mM Mg2+; for phosphate released by gPAPP versus amount of gPAPP: 50 nmol PAP or PAPS, pH 7.5, 20 minutes
T1 construct: N-terminal His-tagged recombinant protein containing amino acids from E51 to K356; His tag (N); host or cells: CHO cells
T1 sequence (Q80V26 51-356): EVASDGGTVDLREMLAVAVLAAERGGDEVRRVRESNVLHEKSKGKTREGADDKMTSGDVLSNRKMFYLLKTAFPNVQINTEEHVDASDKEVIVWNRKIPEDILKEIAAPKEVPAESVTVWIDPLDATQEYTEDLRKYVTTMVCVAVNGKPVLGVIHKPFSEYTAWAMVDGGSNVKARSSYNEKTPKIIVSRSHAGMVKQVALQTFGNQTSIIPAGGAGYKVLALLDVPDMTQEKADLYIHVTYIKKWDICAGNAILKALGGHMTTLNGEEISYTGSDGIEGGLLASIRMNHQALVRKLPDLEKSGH
Protocol: (§1) In the following examples, the gPAPP used was recombinant mouse gPAPP expressed in CHO cells as an N-terminal His-tagged recombinant protein containing amino acids from E51 to K356, created by R & D Systems. The sequence was based on accession number NP 808398 from the National Center for Biotechnology Information. The chondroitin sulfate (CS) and p-nitrophenol (pNP) were obtained from Sigma Aldrich. The PAPS was prepared by R & D Systems using recombinant S. cerevisiae ATP sulurylase and P. chrysogenum APS kinase. The APS kinase was also prepared by R & D Systems. Recombinant human SULT1A1, CHST3, CD73, TNAP and Malachite Green Phosphate Detection Kit were from R & D Systems. Protein concentrations were quantified using the Bradford assay as described by Bradford, M. M., A rapid and sensitive method for the quantitation of microgram quantities of protein utilizing the principle of protein-dye binding. Anal Biochem. 1976. Vol 72, Page 248-254, the relevant portions of which are hereby incorporated by reference. Phosphate levels were determined using the Malachite Green Phosphate Detection Kit available from R & D Systems, according to the package instructions. All examples were performed in a buffer of 25 mM Tris at pH 7.5.
The specificity of gPAPP was first tested on 3′-AMP, 5′-AMP and PAP in the absence or presence of CD73 by combining 10 nmol of either 3′-AMP, 5′-AMP or PAP with 1 μg gPAPP and/or 0.1 μg CD73 in 50 μL assay buffer containing 10 mM Mg^2 at pH 7.5. In a parallel experiment, the same amount of nucleotide was combined with tissue-non-specific alkaline phosphatase (TNAP) at pH 9.0. The ratio between the phosphate released by gPAPP and/or CD73 (Pi) and the phosphate released by TNAP (PiTNAP) was plotted versus the nucleotide and phosphatases in FIG. 5. […] When gPAPP and CD73 were used together, they released twice as much phosphate from PAP than gPAPP alone.
The specificity of gPAPP was tested on PAP and PAPS. In this example, 50 nmol of either PAP or PAPS was treated with different amounts of gPAPP in 50 μL assay buffer containing 10 mM Mg^2 at pH 7.5 for 20 minutes. The released phosphate was plotted versus the amount of gPAPP.

[2] = system: sulfotransferases; conditions: reported; cited from earlier work
[3] = molecular target: T2, CHST3 (Homo sapiens, UniProt Q7LGC8); assay: CHST3 substrate curves for CS and PAPS, gPAPP-coupled assay; format: biochemical
T2 construct: purchased R & D Systems
T2 sequence (Q7LGC8 1-479): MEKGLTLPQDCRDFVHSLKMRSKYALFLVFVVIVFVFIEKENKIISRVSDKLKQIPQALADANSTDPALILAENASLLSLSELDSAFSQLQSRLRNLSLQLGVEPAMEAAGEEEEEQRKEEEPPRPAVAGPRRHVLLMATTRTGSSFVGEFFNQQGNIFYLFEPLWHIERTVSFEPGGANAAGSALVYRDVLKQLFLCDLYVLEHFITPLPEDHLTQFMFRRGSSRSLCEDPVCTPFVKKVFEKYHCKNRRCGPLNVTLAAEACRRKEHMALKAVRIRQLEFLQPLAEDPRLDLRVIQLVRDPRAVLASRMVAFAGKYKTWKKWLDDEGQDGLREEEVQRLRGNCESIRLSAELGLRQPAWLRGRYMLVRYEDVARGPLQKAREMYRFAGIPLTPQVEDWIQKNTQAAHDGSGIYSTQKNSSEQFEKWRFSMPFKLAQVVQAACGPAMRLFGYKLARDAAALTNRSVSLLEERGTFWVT
Protocol: as §1
Carbohydrate sulfotransferase 3 (CHST3) is a sulfotransferase which is known to catalyze the sulfation of N-acetylgalactosamine at the 6-O position. In a first series of reactions, 1 μg CHST3 was combined with 1 μg gPAPP and increasing concentrations of CS in 50 μl assay buffer containing 0.8 mM PAPS, 10 mM MgCl2 at pH 7.5. In a second series of reactions, 0.4 μg CHST3 was combined with 1 μg gPAPP and increasing concentrations of PAPS in 50 μL assay buffer containing […], 10 mg/ml CS, 10 mM MgCl2 at pH 7.5.
An enzyme dose curve was then created for CHST3 at the optimal concentrations for both the donor and acceptor substrates in FIG. 11. To create the dose curve, 1 μg gPAPP was combined with increasing amounts of CHST3 in the presence of 10 mg/ml of CS and 0.5 mM of PAPS in 50 μl assay buffer containing 10 mM MgCl2 at pH 7.5.

[4] = molecular target: T1, gPAPP; assay: Inhibition of gPAPP hydrolysis of PAP by PAPS; format: biochemical; conditions: 0.5 mM PAPS, amount of PAP greater than the coupling capacity
Protocol: as §1, with “Vol 72, Page 248-254, the relevant portions of which are hereby incorporated by reference.” left out, “All examples were performed in a buffer of 25 mM Tris at pH 7.5.” left out
In this example, the coupling capacity of gPAPP was determined. […] The coupling capacity of gPAPP was determined by combining 1 μg gPAPP with increasing amounts of PAP, in the presence or absence of 0.5 mM PAPS in 50 μL assay buffer containing 10 mM Mg^2+ at pH 7.5 for either 20 or 40 minutes. […]

[5] = molecular target: T3, SULT1A1 (Homo sapiens, UniProt P50225); assay: SULT1A1 velocity versus pNP concentration, gPAPP/CD73-coupled assay; format: biochemical; parameters: purchased R & D Systems; conditions: 0.1 μg SULT1A1, 0.25 mM PAPS, gPAPP and CD73
T3 sequence (P50225 whole entry): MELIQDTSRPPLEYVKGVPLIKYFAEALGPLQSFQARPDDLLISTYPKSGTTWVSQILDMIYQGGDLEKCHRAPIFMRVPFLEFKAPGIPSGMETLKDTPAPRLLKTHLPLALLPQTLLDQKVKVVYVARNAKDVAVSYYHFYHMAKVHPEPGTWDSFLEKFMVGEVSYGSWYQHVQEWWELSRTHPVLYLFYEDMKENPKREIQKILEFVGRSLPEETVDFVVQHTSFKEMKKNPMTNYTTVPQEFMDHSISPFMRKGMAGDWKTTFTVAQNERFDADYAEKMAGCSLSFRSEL
Protocol: as §1, with “Anal Biochem. 1976. Vol 72, Page 248-254, the relevant portions of which are hereby incorporated by reference.” left out, “All examples were performed in a buffer of 25 mM Tris at pH 7.5.” left out
A series of reactions were performed by combining increasing concentrations of pNP with 0.1 μg SULT1A1, 2 μg PAPP and 0.1 μg CD73 in 200 μL of an assay buffer containing 0.25 mM PAPS, 10 mM MgCl2 at pH 7.5. […] These values are consistent with reported values for SULT1A1 determined using radioisotope assays in the literature.

[6] = molecular target: T3, SULT1A1; conditions: read-out: half maximal velocity (Km); reported; cited from earlier work

Nc1ncnc2c1ncn2[C@@H]1O[C@H](CO)[C@@H](OP(=O)(O)O)[C@H]1O [3′-AMP]
activity of gPAPP alone on the nucleotide ([1]; 10 nmol nucleotide, pH 7.5): not

Nc1ncnc2c1ncn2[C@@H]1O[C@H](COP(=O)(O)O)[C@@H](O)[C@H]1O [5′-AMP, 5-adenosine monophosphate]
activity of gPAPP alone on the nucleotide ([1]; 10 nmol nucleotide, pH 7.5): not

Nc1ncnc2c1ncn2[C@@H]1O[C@H](COP(=O)(O)O)[C@@H](OP(=O)(O)O)[C@H]1O [PAP, 3′-phosphoadenosine-5′-phosphate]
phosphate released by gPAPP and CD73 together compared with gPAPP alone ([1]; 10 nmol nucleotide, 1 μg gPAPP and 0.1 μg CD73, 10 mM Mg2+, pH 7.5): twice as much | activity of gPAPP alone on the nucleotide ([1]; 10 nmol nucleotide, pH 7.5): showed activity | phosphate released by gPAPP versus amount of gPAPP [1]: increased with the amount of the enzyme | inhibition of sulfotransferases [2]: potent inhibitor

Nc1ncnc2c1ncn2[C@@H]1O[C@H](COP(=O)(O)OS(=O)(=O)O)[C@@H](OP(=O)(O)O)[C@H]1O [PAPS, 3′-phosphoadenosine-5′-phosphosulfate]
phosphate released by gPAPP versus amount of gPAPP [1]: showed no change | level above which substrate inhibition occurred ([3]; 0.4 μg CHST3, 10 mg/ml CS): above 0.5 mM | Km ([3]; 0.4 μg CHST3, 10 mg/ml CS, read-out: concentration for half-maximal velocity (Km for PAPS)): < 100 µM | optimal concentration (visually determined) ([3]; highest point of the curve of FIG. 10B): about 0.5 mM | inhibition of the hydrolysis of PAP [4]: ~20%

O=[N+]([O-])c1ccc(O)cc1 [pNP, p-nitrophenol]
concentration above which substrate inhibition was present [5]: above 4 mM | concentration for half maximum velocity ([5]; projected): < 1.0 µM | Km [6]: < 1 µM

chondroitin sulfate [CS]
concentration for half-maximal velocity (Km for CS) ([3]; 1 μg CHST3, 0.8 mM PAPS): about 2 mg/ml | substrate inhibition ([3]; 1 μg CHST3, 0.8 mM PAPS): no substrate inhibition | optimal concentration (visually determined) ([3]; highest point of the curve of FIG. 10A): > 5 mg/mL
